Measurements: article PMC8033486 (Frontiers in Pharmacology, 2021)
Where a name gives a salt, the structure may show the parent alone. Read-outs that look alike come from different tables or passages of the source. Where a SMILES comes first, the peptide text is derived from it. The star is where a group is joined. Cbz = O=C(OCc1ccccc1)*

Legend:
SARS-CoV-2 = assay: microbe, parasite or virus in culture; format: cell-based; details: for Inhibition of SARS-CoV-2-induced cytopathic effect, result in words: Vero E6
in vitro = details: African green monkey
[1] = CC50, Vero E6, no virus, 3 days
[2] = Vero E6, cytopathic effect 3 days after infection, repeated experiments
[3] = Severe acute respiratory syndrome coronavirus 2, Vero C1008, 72 h, Vero E6, cytopathic effect 3 days after infection, repeated experiments, read-out: IC50 (Mean +/- SD)
[4] = Severe acute respiratory syndrome coronavirus 2, Vero C1008, Vero E6, one representative experiment with two replicates, when combined, each drug at the same concentration, read-out: IC50 value of the particular graph

Structure (SMILES): CC(=O)N[C@H]1C([C@H](O)[C@H](O)CO)O[C@@](O[C@@H]2C(O)[C@H](O[C@@H]3C(CO)OC(O)C(O)[C@H]3O)OC(CO)[C@@H]2O)(C(=O)[O-])C[C@H]1O.[Na+] (some centres unmarked) [3’ Sialyllactose Na Salt]
- Inhibition of SARS-CoV-2-induced cytopathic effect, result in words (SARS-CoV-2): not able to reduce viral-induced cytopathic effect

Structure (SMILES): NC12CC3CC(CC(C3)C1)C2 [Amantadine]
- Inhibition of SARS-CoV-2-induced cytopathic effect, result in words (SARS-CoV-2): only a partial inhibition at 100 μM
- CC50 at 3 days (in vitro; [1]): > 100 µM

Structure (SMILES): CC(C)CN(C[C@@H](O)[C@H](Cc1ccccc1)NC(=O)O[C@H]1CCOC1)S(=O)(=O)c1ccc(N)cc1 [Amprenavir]
- Inhibition of SARS-CoV-2-induced cytopathic effect, result in words (SARS-CoV-2): exhibited activity at the non-toxic concentration of 100 µM
- CC50 at 3 days (in vitro; CC50): > 100 µM

Structure (SMILES): CC[C@H]1OC(=O)[C@H](C)[C@@H](O[C@H]2C[C@@](C)(OC)[C@@H](O)[C@H](C)O2)[C@H](C)[C@@H](O[C@@H]2O[C@H](C)C[C@H](N(C)C)[C@H]2O)[C@](C)(O)C[C@@H](C)CN(C)[C@H](C)[C@@H](O)[C@]1(C)O [Azithromycin]
- CC50 at 3 days (in vitro; [1]): > 100 µM

Structure (SMILES): CCS(=O)(=O)N1CC(CC#N)(n2cc(-c3ncnc4[nH]ccc34)cn2)C1 [Baricitinib]
- CC50 (in vitro): > 85 µM

Structure (SMILES): CC(C)(C)NC(=O)N[C@H](C(=O)N1C[C@H]2[C@@H]([C@H]1C(=O)NC(CC1CCC1)C(=O)C(N)=O)C2(C)C)C(C)(C)C (some centres unmarked) [Boceprevir]
- CC50 at 3 days (in vitro; CC50): > 100 µM

Structure (SMILES): CN(C)CCCN1c2ccccc2Sc2ccc(Cl)cc21 [Chlorpromazine]
- Inhibition of SARS-CoV-2-induced cytopathic effect, result in words (SARS-CoV-2): we did not find any prominent effect
- CC50 at 3 days (in vitro; [1]): > 18 µM

Structure (SMILES): COc1cc2c(c(OC)c1OC)-c1ccc(OC)c(=O)cc1[C@@H](NC(C)=O)CC2 [Colchicine]
- CC50 (in vitro): 0.63 µM

Structure (SMILES): CC(C)CN(C[C@@H](O)[C@H](Cc1ccccc1)NC(=O)O[C@H]1CO[C@H]2OCC[C@H]21)S(=O)(=O)c1ccc(N)cc1 [Darunavir]
- IC50 (Mean +/- SD) (SARS-CoV-2): partially active at 100

Structure (SMILES): O=C(O)c1nn(Cc2ccc(Cl)cc2Cl)c2ccccc12 [Diclondazolic acid (Lonidamine), Diclondazolic acid]
- IC50 (Mean +/- SD) (SARS-CoV-2): Not Active

Structure (SMILES): C[C@H]1c2cccc(O)c2C(=O)C2=C(O)[C@]3(O)C(=O)C(C(N)=O)=C(O)[C@@H](N(C)C)[C@@H]3[C@@H](O)[C@@H]21 [Doxycycline]
- CC50 at 3 days (in vitro; [1]): > 100 µM

Structure (SMILES): Nc1nc(=O)n([C@@H]2CS[C@H](CO)O2)cc1F [Emtricitabine]
- Inhibition of SARS-CoV-2-induced cytopathic effect, result in words (SARS-CoV-2): failed to show any antiviral effect
- IC50 (Mean +/- SD) (SARS-CoV-2; [2]): Not Active
- CC50 at 3 days (in vitro; [1]): > 100 µM

Structure (SMILES): CN(C)[C@@H]1C(O)=C(C(N)=O)C(=O)[C@@]2(O)C(O)=C3C(=O)c4c(O)c(NC(=O)CN5CCCC5)cc(F)c4C[C@H]3C[C@@H]12 [Eravacycline]
- CC50 at 3 days (in vitro; [1]): > 4 µM

Structure (SMILES): NC(N)=Nc1nc(CSCCC(N)=NS(N)(=O)=O)cs1 [Famotidine]
- IC50 (Mean +/- SD) (SARS-CoV-2; [2]): Not Active
- CC50 at 3 days (in vitro; [1]): > 100 µM

Structure (SMILES): NC(=O)c1nc(F)c[nH]c1=O [Favipiravir]
- Inhibition of SARS-CoV-2-induced cytopathic effect, result in words (SARS-CoV-2): only partial inhibitory activity at the non-toxic concentration of 100 µM
- CC50 at 3 days (in vitro; CC50): > 100 µM

Structure (SMILES): OC(Cn1cncn1)(Cn1cncn1)c1ccc(F)cc1F [Fluconazol]
- CC50 at 3 days (in vitro; [1]): > 100 µM

Structure (SMILES): CC(C)CN(C[C@@H](OP(=O)(O)O)[C@H](Cc1ccccc1)NC(=O)O[C@H]1CCOC1)S(=O)(=O)c1ccc(N)cc1 [Fosamprenavir Calcium]
- CC50 at 3 days (in vitro; [1]): > 25 µM

Structure (SMILES): Nc1ncnc2c([C@@H]3N[C@H](CO)[C@@H](O)[C@H]3O)c[nH]c12 [Galdesivir]
- IC50 (Mean +/- SD) (SARS-CoV-2): Not Active
- Inhibition of SARS-CoV-2-induced cytopathic effect, result in words (SARS-CoV-2): no antiviral effect

Structure (SMILES): CCN(CCO)CCCC(C)Nc1ccnc2cc(Cl)ccc12 (centres unmarked) [Hydroxychloroquine]
- IC50 (SARS-CoV-2; [3]): 9.3 ± 11.1 µM
- IC50 (SARS-CoV-2; [4]): 2.1 µM
- Inhibition of SARS-CoV-2-induced cytopathic effect, result in words (SARS-CoV-2): able to inhibit viral-induced cytopathic effects at concentrations where no cytotoxic effects of the drug were observed
- CC50 at 3 days (in vitro; [1]): > 80 µM

Structure (SMILES): CCC(C)n1ncn(-c2ccc(N3CCN(c4ccc(OCC5COC(Cn6cncn6)(c6ccc(Cl)cc6Cl)O5)cc4)CC3)cc2)c1=O (centres unmarked) [Itraconazole]
- IC50 (SARS-CoV-2; [3]): 79.4 µM
- IC50 (SARS-CoV-2; [4]): 79.4 µM
- IC50 (SARS-CoV-2; Vero E6, cytopathic effect 3 days after infection, repeated experiments, read-out: IC50 (Mean +/- SD)): 80 µM
- CC50 at 3 days (in vitro; [1]): > 100 µM

Structure (SMILES): Cc1cccc(C)c1OCC(=O)N[C@@H](Cc1ccccc1)[C@@H](O)C[C@H](Cc1ccccc1)NC(=O)[C@H](C(C)C)N1CCCNC1=O [Lopinavir]
- Inhibition of SARS-CoV-2-induced cytopathic effect, result in words (SARS-CoV-2): inhibited SARS-CoV-2-induced cytopathic effect at the non-toxic concentration of 20 μM
- CC50 at 3 days (in vitro; [1]): > 87 µM

Structure (SMILES): CC(C)[C@H](NC(=O)OCc1ccccc1)C(=O)N[C@H](C=O)Cc1ccccc1 [MDL 28170] (Cbz-Val-Phe-aldehyde)
- IC50 (SARS-CoV-2; Severe acute respiratory syndrome coronavirus 2, Vero C1008, 72 h, read-out: IC50 (Mean +/- SD)): 0.14 µM
- IC50 (SARS-CoV-2; Severe acute respiratory syndrome coronavirus 2, Vero C1008, read-out: IC50 value of the particular graph, Vero E6, one representative experiment with two replicates, when combined, each drug at the same concentration): 0.2 µM
- Inhibition of SARS-CoV-2-induced cytopathic effect, result in words (SARS-CoV-2): activity in the nanomolar range
- CC50 (in vitro): > 87 µM

Structure (SMILES): OC(c1cc(C(F)(F)F)nc2c(C(F)(F)F)cccc12)C1CCCCN1 (centres unmarked) [Mefloquine hydrochloride]
- CC50 at 3 days (in vitro; [1]): > 100 µM
